# Paper PMC12682947, “Identification of New KCNT1‐Epilepsy Drugs by In Silico, Cell, and Drosophila Modeling” (Annals of Neurology, 2025)
# Where a name gives a salt, the structure may show the parent alone.
# Biological target: T1, G288S mutant KCNT1 channels (Homo sapiens, UniProt Q5JUK3, G269S)
# T1 construct: YFP-6His; expressed in transfected cells; host or cells: HEK293T
# T1 sequence (Q5JUK3 1-1235 isoform Q5JUK3-3 G288S): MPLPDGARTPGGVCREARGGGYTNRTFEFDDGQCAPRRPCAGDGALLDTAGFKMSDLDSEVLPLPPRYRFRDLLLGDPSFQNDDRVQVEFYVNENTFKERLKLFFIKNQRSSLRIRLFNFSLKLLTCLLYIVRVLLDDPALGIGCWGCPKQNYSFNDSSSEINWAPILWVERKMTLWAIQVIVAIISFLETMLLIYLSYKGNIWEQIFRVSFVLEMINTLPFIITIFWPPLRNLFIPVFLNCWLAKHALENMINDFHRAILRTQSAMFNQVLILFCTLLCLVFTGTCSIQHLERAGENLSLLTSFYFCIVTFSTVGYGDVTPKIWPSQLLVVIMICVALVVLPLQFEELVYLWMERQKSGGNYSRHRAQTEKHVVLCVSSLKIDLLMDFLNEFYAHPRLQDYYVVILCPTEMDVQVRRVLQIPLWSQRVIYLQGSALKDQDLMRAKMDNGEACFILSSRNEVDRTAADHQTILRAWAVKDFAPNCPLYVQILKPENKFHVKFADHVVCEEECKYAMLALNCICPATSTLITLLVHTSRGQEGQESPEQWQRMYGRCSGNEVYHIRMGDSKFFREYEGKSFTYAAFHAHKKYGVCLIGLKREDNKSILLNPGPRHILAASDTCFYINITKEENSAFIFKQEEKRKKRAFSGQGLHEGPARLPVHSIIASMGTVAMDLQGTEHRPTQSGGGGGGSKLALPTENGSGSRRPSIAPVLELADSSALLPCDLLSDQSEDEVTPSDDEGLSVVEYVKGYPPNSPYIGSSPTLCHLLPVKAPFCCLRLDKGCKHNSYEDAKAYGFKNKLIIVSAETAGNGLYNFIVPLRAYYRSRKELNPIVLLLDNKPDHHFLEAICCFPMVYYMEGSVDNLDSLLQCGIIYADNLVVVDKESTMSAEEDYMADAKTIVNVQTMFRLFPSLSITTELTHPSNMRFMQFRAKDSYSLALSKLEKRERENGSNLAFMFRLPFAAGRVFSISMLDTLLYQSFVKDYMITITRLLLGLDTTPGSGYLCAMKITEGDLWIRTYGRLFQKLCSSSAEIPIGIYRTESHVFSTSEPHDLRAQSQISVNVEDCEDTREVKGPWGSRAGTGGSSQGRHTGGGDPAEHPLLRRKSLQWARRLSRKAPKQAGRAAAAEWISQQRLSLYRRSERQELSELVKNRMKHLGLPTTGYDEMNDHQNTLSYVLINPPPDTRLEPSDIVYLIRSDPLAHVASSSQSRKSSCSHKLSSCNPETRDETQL
# Test: Inside-out patch clamp of HEK293T cells expressing G288S KCNT1
# Assay type: cell-based
# Settings: inside-out patches, mean ± SEM
# Experimental: The CHO cells were cultured in Dulbecco's modified Eagle's Medium (ThermoFisher, UK) supplemented with 10% (v/v) fetal bovine serum, 50 U/ml penicillin and 0.05 mg/ml streptomycin, and incubated at 37°C in 5% CO2 atmosphere. For whole cell recording of WT/Y796H KCNT1, CHO cells were transiently co‐transfected with concatemeric WT/Y796H and EYFP, as described previously.[29] For electrophysiological experiments, cells were plated onto borosilicate glass cover slips and used 2 to 4 days later. Human embryonic kidney 293T cells (HEK293T) were cultured in the same manner, but with medium supplemented with 2 mM L‐glutamine, and 1% (v/v) nonessential amino acids. For excised inside‐out recording of homomeric WT or mutant YFP‐tagged KCNT1, HEK293T cells plated on glass cover slips were transfected using Attractene Transfection Reagent (Qiagen, Germany) according to the manufacturer's instructions and used 2 to 3 days later.
# Inside‐out patch clamp recordings were made at room temperature (23°C) from transiently transfected HEK293T cells, as described previously.[11] The pipette solution contained, in mM, 140 NaCl, 4 KCl, 2 CaCl2, 2 MgCl2, and 10 HEPES adjusted to pH 7.4 with NaOH. […] KCNT1 currents were recorded using 2 voltage protocols, depending on the number of active channels in the patch before drug application. Macroscopic currents (number of active channels > 15) were recorded in response to 100 ms voltage ramps between −120 and 120 mV applied every 2 seconds from a holding potential of −78 mV. […] With a lower number of active channels in the patch (3–15), current traces were recorded in response to 15‐second voltage steps to −20, 0, and 20 mV from a holding potential of −78 mV. Currents recorded at each voltage and each drug concentration were averaged over the duration of the trace and normalized to the average amplitudes of the corresponding current traces in drug‐free solution. […] Single channel data were analyzed using Ana software developed by Dr Michael Pusch (Istituto di Biofisica, Genova, Italy; http://users.ge.ibf.cnr.it/pusch/programs-mik.htm). […]
row,Compound,IC50
1,O=C(OCCN1CCN(c2cccc(C(F)(F)F)c2)CC1)c1ccccc1Nc1ccnc2cc(C(F)(F)F)ccc12 [antrafenine],13.3 ± 3.7 nM
2,CC(C)c1c(C(=O)Nc2ccccc2)c(-c2ccccc2)c(-c2ccc(F)cc2)n1CC[C@@H](O)C[C@@H](O)CC(=O)O [atorvastatin],2600 ± 1600 nM
3,Cc1c(O)cccc1C(=O)N[C@@H](CSc1ccccc1)[C@H](O)CN1C[C@H]2CCCC[C@H]2C[C@H]1C(=O)NC(C)(C)C [nelfinavir mesylate],9.5 ± 1.8 nM
